From patent publication US9198979B2, “Thiazolidine linker for the conjugation of drugs to antibodies” (Philogen S.P.A., priority 2010, dated 2015)
Where two headings read alike, the source gives them in different places.

How the values were obtained:
[1] = test system: HEK293T cells; experiment: In vitro toxicity assay (MTS cell proliferation assay), HEK293T; format: cell-based, human; settings: ~72 hours
Experimental: HEK293T cells were grown in RPMI (Gigbo-Invitrogen) medium supplemented with 10% FCS and antibiotics and maintained at 37° C. in 5% CO2.
(§1) For the in vitro toxicity assay 30000 cells/well (final volume 100 μl) were seeded in a 96 well plate with a defined peptide dilution (by adding 1.5 μl of peptide solution to 500 μl of cell suspension) and incubated at 37° C. in 5% CO2.
(§2) After ˜72 hours, cell viability was measured using the “Cell Titer 96®Aqueous One Solution Cell Proliferation Assay” (Promega), performed according to the manufacturers instruction. Briefly: 20 μl of MTS solution were added to each well, the plate was then incubated at 37° C. for 2 hour. The read out of the assay is the absorbance at 490 nm.

[2] = test system: F9 teratocarcinoma cells; experiment: In vitro toxicity assay (MTS cell proliferation assay), F9; format: cell-based, murine; settings: F9, ~72 hours
Experimental: as §1, §2
(§3) The experiments were then extended to F9 and HL60 cells in the same manner.
Cem-CH2—SH cell killing ability was evaluated by cytotoxicity assays: one non-tumor cell line (human embryonic kidney cells, HEK 293T) and two tumor cell lines, murine F9 teratocarcinoma cells (F9) and human promyelocytic leukemia cells (HL60), were incubated over 3 days with different concentrations of non-modified cemadotin and the derivative Cem-CH2—SH (FIG. 20).

[3] = test system: HL60 cells; experiment: In vitro toxicity assay (MTS cell proliferation assay), HL60; format: cell-based, human; settings: HL60, ~72 hours
Experimental: as §1, §2, §3

Row | Substance | t1/2 thiazolidine (fluorescein release half-life) (pH 6.6) [h] | t1/2 thiazolidine (fluorescein release half-life) (pH 7.4) [h] | cytotoxicity (IC50) [1] | cytotoxicity (IC50) [2] | cytotoxicity (IC50) [3]
1 | BSA-fluorescein conjugate: BSA conjugated to carboxyfluorescein by the thiazolidine linker | 37 | 44 |  |  | 
2 | Cemadotin |  |  | sub-nanomolar | sub-nanomolar | sub-nanomolar
